The source of these data is patent publication US10632095B2 (Zoetis Services LLC, priority 2013, dated 2020).

Usually IC50 stands for the concentration at which inhibition is half-maximal. In general, IC90 refers to the concentration needed for an effect of 90%.

Where two headings read alike, the source gives them in different places.

One series deals with T1, bovine COX-2 (Bos taurus, UniProt O62698).
T1 construct: using a bovine whole blood assay; from tissue; host or cells: heparinized bovine whole blood, LPS-treated
T1 sequence (O62698 18-604): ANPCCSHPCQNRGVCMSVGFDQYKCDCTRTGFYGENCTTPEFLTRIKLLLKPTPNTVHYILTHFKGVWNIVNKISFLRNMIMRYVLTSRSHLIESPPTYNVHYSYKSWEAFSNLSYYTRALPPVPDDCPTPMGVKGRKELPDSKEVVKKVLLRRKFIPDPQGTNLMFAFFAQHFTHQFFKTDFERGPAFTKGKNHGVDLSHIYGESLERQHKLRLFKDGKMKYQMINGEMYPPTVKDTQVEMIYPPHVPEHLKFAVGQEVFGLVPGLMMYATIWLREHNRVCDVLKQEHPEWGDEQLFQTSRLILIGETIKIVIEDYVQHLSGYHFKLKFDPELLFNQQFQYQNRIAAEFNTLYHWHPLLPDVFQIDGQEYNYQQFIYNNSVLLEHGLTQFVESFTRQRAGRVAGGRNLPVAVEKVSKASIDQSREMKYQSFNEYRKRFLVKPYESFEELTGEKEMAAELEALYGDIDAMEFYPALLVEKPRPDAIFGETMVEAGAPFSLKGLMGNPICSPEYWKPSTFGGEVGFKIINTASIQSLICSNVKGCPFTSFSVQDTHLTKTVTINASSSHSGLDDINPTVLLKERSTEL
As to the kind of experiment: Bovine in vitro whole blood COX inhibitor assay (PGE2). The series is classed as cell-based. How it is done: (§1) Briefly, heparinized blood was collected for both assays. The COX-1 assay involved treatment of the blood with protamine; to reverse the anti-coagulation effects of heparin; thus, inducing clotting and production of Thromboxane B2 (TXB2). The COX-2 assay involved treatment of blood with LPS to produce PGE2. Both assays included the presence of varying amounts of inhibitors, to inhibit the TXB2 or PGE2. […] Percent inhibition was calculated from the raw data for each drug dose based on the mean of the TXB2 or PGE2 concentrations. Then the mean % inhibition curves (% inhibition versus drug concentration) were analyzed via non-linear regression to yield individual IC50 and IC90 values.

Another series has as its target swine COX-2 (Sus scrofa, UniProt Q8SPR3). As to the kind of experiment: Porcine alveolar macrophage COX inhibitor assay (PGE2 read-out). The format is cell-based. The note with it: for IC90: read-out: COX-2 IC90. The method, then: (§2) Alveolar macrophages were treated with a lipopolysaccharide (LPS), in the presence of varying amounts of inhibitors, to produce thromboxane B2 (TXB2) and/or prostaglandin E2 (PGE2). […] Each drug was tested in three different experiments on three different days (at a minimum).

For a further series, the system named is bradykinin. The note with it: Julou 1976; cited from earlier work.
In another series the target is swine COX-1 (Sus scrofa, UniProt A0A287ANF9). As to the kind of experiment: Porcine alveolar macrophage COX inhibitor assay (TXB2 read-out). The series is classed as cell-based. Particulars: for IC90: read-out: COX-1 IC90. How it is done: as §2
A further series concerns the target T2, bovine COX-1 (Bos taurus, UniProt O62664).
T2 construct: using a bovine whole blood assay; from tissue; host or cells: heparinized bovine whole blood, protamine-treated to induce clotting
T2 sequence (O62664 25-600): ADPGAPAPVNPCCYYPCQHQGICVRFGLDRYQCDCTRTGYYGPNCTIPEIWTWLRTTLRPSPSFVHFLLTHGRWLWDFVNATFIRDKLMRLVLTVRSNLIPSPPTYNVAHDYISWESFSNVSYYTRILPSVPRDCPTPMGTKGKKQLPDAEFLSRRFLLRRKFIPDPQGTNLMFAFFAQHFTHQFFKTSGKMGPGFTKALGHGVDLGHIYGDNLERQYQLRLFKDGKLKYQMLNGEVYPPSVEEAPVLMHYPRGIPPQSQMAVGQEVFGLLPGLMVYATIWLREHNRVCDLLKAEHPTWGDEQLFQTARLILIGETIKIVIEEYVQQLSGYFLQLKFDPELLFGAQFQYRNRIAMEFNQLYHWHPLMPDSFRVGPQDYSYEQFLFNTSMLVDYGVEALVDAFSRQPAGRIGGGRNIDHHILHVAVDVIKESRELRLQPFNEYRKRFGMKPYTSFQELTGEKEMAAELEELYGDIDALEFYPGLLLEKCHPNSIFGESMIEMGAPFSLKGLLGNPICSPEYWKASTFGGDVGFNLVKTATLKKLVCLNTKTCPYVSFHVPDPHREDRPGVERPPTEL
Nature of the series: Bovine in vitro whole blood COX inhibitor assay (TXB2). The series is classed as cell-based. The method, then:
as §1

Another series has as its system LPS-induced lameness. As to the kind of experiment: LPS-induced swine synovitis model. The format is in vivo. The note with it: validation study, 2.2 mg/kg, IM.
Series [1] deals with swine influenza virus (SIV)-induced fever. The series is classed as in vivo.
Series [2] can be described thus: Hydrolysis in swine plasma. The format is in vitro ADME.
Series [3] in a line: Hydrolysis in swine liver microsomes. The format is in vitro ADME. On the technique in general: Microsomes from liver hold many membrane-bound enzymes, among them those of drug oxidation.
Where [4] appears, read: read-out: COX-2 IC50, LPS-treated porcine alveolar macrophages, PGE2 by ELISA, 21-24 hours incubation.
The mark [5] stands for this setting: read-out: COX-1 IC50, LPS-treated porcine alveolar macrophages, TXB2 by ELISA, 21-24 hours incubation.
The mark [6] stands for this setting: LPS-treated porcine alveolar macrophages, PGE2 by ELISA, 21-24 hours incubation, read-out: COX-2 IC50.
The mark [7] stands for this setting: LPS-treated porcine alveolar macrophages, PGE2 by ELISA, 21-24 hours incubation.
Where [8] appears, read: LPS-treated porcine alveolar macrophages, TXB2 by ELISA, 21-24 hours incubation, read-out: COX-1 IC50.
Setting [9] is: LPS-treated porcine alveolar macrophages, TXB2 by ELISA, 21-24 hours incubation.

Chain of swine COX-2 (Q8SPR3 entry or part of it): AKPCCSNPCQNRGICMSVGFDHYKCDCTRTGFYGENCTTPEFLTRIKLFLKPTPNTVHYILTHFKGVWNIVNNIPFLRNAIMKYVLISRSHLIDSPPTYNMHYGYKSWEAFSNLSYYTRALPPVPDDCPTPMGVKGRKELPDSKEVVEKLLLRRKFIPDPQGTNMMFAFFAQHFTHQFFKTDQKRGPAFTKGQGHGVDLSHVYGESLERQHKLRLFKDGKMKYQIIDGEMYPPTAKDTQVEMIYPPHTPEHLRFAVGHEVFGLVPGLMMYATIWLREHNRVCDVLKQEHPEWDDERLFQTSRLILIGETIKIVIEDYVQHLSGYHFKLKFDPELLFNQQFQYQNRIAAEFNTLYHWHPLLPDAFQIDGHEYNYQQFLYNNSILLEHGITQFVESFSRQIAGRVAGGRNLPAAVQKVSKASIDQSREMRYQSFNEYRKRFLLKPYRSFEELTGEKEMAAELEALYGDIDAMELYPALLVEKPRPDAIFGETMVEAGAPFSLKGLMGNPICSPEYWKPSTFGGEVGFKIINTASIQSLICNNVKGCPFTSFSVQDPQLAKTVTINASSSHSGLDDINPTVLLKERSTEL
Chain of swine COX-1 (A0A287ANF9 25-600): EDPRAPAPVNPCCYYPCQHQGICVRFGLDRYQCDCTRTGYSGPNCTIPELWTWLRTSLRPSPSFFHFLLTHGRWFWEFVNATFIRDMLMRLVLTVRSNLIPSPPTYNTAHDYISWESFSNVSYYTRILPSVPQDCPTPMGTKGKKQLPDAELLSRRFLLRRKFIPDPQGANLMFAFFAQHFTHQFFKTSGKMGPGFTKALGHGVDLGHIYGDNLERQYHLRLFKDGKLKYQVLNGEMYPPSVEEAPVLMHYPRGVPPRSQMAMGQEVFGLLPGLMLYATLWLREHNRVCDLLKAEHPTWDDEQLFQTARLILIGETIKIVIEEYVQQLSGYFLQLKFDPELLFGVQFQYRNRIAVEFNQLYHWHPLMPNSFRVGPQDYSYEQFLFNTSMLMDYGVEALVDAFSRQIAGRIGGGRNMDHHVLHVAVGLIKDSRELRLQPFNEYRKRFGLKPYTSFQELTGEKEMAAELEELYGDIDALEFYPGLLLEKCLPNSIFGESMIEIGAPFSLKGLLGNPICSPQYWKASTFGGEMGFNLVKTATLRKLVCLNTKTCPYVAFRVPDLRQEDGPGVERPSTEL

In the case of `CC(C(=O)O)c1cccc(C(=O)c2ccccc2)c1` (racemic) [Ketoprofen, 2-(3-benzoylphenyl)-propionic acid], the IC50 on bovine COX-2 (read-out: IC50 against bovine COX-2) was 220 nM; at swine COX-2 (setting [4]) it was 6 nM; on swine COX-2 (read-out: IC50 against swine ortholog of COX-2, one range given for COX-1 and COX-2), 6 to 7 nM; at swine COX-1 (setting [5]) it was 7 nM; at swine COX-1 (read-out: IC50 against swine ortholog of COX-1, one range given for COX-1 and COX-2), 6 to 7 nM; on bovine COX-1, 30 nM. Moreover, the IC90 on swine COX-2 and at swine COX-1 was 80 nM throughout. The “functional bradykinin antagonist activity, effects greater than indomethacin” value in the series on bradykinin is on record as 8 times.
For `C[C@H](C(=O)O)c1cccc(C(=O)c2ccccc2)c1` (single isomer, unassigned) [Ketoprofen (S)-enantiomer], the IC50 was 1 nM on swine COX-2 (setting [6]) and 2 nM on swine COX-1 (setting [8]). Also, the IC90 on swine COX-2 (setting [7]) was found to be 40 nM; on swine COX-1 (setting [9]) it was 60 nM.
Take `CC(C(=O)O)c1ccc2c(c1)[nH]c1ccc(Cl)cc12` (stereo not shown) [Carprofen]: the values for the IC50 on swine COX-2 (setting [4]) and at swine COX-1 (setting [8]) were 3170 nM and 5060 nM, respectively. For the same compound, the figures for the IC90 on swine COX-2 and on swine COX-1 were 39000 nM and 58400 nM, respectively.
Consider `Cc1c(Nc2ncccc2C(=O)O)cccc1C(F)(F)F` [Flunixin], for which the IC50 at swine COX-2 (setting [6]) turned out to be 33 nM; on swine COX-1 (setting [5]) it was 66 nM. Moreover, the IC90 on swine COX-2 (setting [7]) amounted to 507 nM; on swine COX-1 (setting [9]), 747 nM. The “reduction of LPS-induced lameness” value in the series on LPS-induced lameness is “effective at reducing LPS-induced lameness”.
As to `COC(=O)C(C)c1cccc(C(=O)c2ccccc2)c1` (stereo not shown) [Formula 1, methyl 2-(3-benzoylphenyl)propanoate], the IC50 at bovine COX-2 was 290 nM; on swine COX-2 (setting [4]) it was 130 nM; at swine COX-1 (setting [5]), 260 nM; at bovine COX-1 it was 500 nM. Also, the IC90 came out at 2290 nM on bovine COX-2 (read-out: IC90 COX-2), 840 nM on swine COX-2, 1680 nM at swine COX-1 and 3.1 µM at bovine COX-1 (read-out: IC90 COX-1). Further, the “potency relative to Meloxicam” value on swine COX-2 (swine COX, Table 1) is “about 5 times”. Besides, the “anti-pyretic activity continues through (post-dose)” value in [1] (6 mg/kg IM in Miglyol 812) was not below 72 h. Besides, in series [1] (Formula 1 4, 5, 6 mg/kg IM, Banamine 2.2 mg/kg IM), the “activity compared with vehicle at t=35 hours (11 hours post-dose)” value is reported as “remained active”. Also, the “fever reduction compared with vehicle” value in [1] (young gilts, in Miglyol 812, 4, 5, 6 mg/kg IM, 24 hours after SIV, all timepoints from 1 hour post-dose) is “significantly reduced fever”. Moreover, in series [1] (young gilts, in Miglyol 812, 4, 5 and 6 mg/kg IM), the “onset of anti-pyretic efficacy post-dose” value was determined as 1 h. In addition, the “hydrolysis in swine plasma” value in series [2] is recorded as “moderately or slowly”. The “hydrolysis in swine liver microsomes” value in series [3] was “hydrolyzed rapidly”.
With `CCOC(=O)C(C)c1cccc(C(=O)c2ccccc2)c1` (stereo not shown) [Formula 2, ethyl 2-(3-benzoylphenyl)propanoate], the “hydrolysis in swine plasma” value in series [2] is listed as “moderately or slowly”. Moreover, in series [3], the “hydrolysis in swine liver microsomes” value was “hydrolyzed rapidly”.
Consider `CC(C(=O)OCCNC(=O)c1cccnc1)c1cccc(C(=O)c2ccccc2)c1` (stereo not shown) [Formula 3, 2-(nicotinamido)ethyl 2-(3-benzoylphenyl)propanoate], for which the IC50 is 120 nM on swine COX-2 (setting [4]) and 150 nM on swine COX-1 (setting [5]). Further, the figures for the IC90 at swine COX-2 and on swine COX-1 were 930 nM and 4860 nM, respectively. Besides, the “hydrolysis in swine plasma” value in series [2] is “moderately or slowly”. For the same compound, the “hydrolysis in swine liver microsomes” value in [3] is “hydrolyzed rapidly”.
Consider `Cc1cnc(NC(=O)C2=C(O)c3ccccc3S(=O)(=O)N2C)s1` [Meloxicam], for which the results for the IC50 on swine COX-2 (setting [4]) and at swine COX-1 (setting [8]) were 560 nM and 1020 nM, respectively. Further, the IC90 at swine COX-2 was 9000 nM; at swine COX-1, 49300 nM.
